The values below come from ChEMBL document CHEMBL1201862, “PubChem BioAssay data set” (2004).

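How tested: cells in 96-well plates exposed to compound for 48 hours at five concentrations. Here, GI50 denotes the concentration required for 50% inhibition of growth.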 Activity calls are given as the source filed them. Cut-off read from the data, not from the text of the source: active = GI50 up to about 1.1 µM and inactive = higher.

Test systems include KM12; NCI-H460; UACC-257; EKVX; HOP-62; SN12C; SK-MEL-5; HL-60; LOX IMVI; HCT-116; UO-31; CCRF-CEM; A498; SR; RXF 393; COLO 205; HT-29; SF-268; RPMI-8226; NCI-H522.
What all share (assay): NCI anticancer screen, dose series, 48 h

On to `CCN(CC)C(=S)SC(C(=O)Nc1nnc(-c2ccc(Cl)cc2)o1)c1ccccc1` (stereo not given), for which the GI50 was 17.9 µM (inactive) in the assay with KM12; 10.4 µM (inactive) in the assay on NCI-H460; 31.6 µM (inactive) in the assay on UACC-257; 8.47 µM (inactive) in the assay on EKVX; 14.7 µM (inactive) in the assay with HOP-62; 13.3 µM (inactive) in the assay on SN12C. Moreover, the GI50 was 4.6 µM (inactive) with SK-MEL-5; 4.85 µM (inactive) in the assay with HL-60; 15.3 µM (inactive) in the assay with LOX IMVI; 3.46 µM (inactive) in the assay with HCT-116; 17 µM (inactive) in the assay on UO-31; 2.84 µM (inactive) in the assay on CCRF-CEM. Further, the GI50 in the assay with A498 is 11.9 µM (inactive); with SR it was 4.97 µM (inactive); with RXF 393, 14.9 µM (inactive); in the assay with COLO 205, 4.06 µM (inactive); in the assay on HT-29 it was 4.86 µM (inactive); in the assay on SF-268, 15.6 µM (inactive). Also, the GI50 was 4.72 µM (inactive) in the assay with RPMI-8226 and 4.62 µM (inactive) in the assay with NCI-H522.

On to `COC(COC(N)=O)C1=C(N2CC2)C(=O)C(C)=C(N2CC2)C1=O` (stereo not given) [CARBOQUONE], for which the GI50 is 0.122 µM (active) in the assay with KM12; < 0.01 µM (active) in the assay with NCI-H460; 0.126 µM (active) with UACC-257; 0.47 µM (active) with EKVX; < 0.0154 µM (active) with HOP-62; < 0.0266 µM (active) with SN12C. Besides, the GI50 was 0.046 µM (active) in the assay with SK-MEL-5; < 0.0114 µM (active) with HL-60; < 0.0144 µM (active) in the assay with LOX IMVI; 0.0284 µM (active) in the assay on HCT-116; 0.0307 µM (active) in the assay on UO-31; 0.0355 µM (active) in the assay with CCRF-CEM. For the same molecule, the GI50 is 0.0904 µM (active) with A498; < 0.0221 µM (active) with SR; 0.107 µM (active) with RXF 393; 0.113 µM (active) in the assay with COLO 205; 0.0342 µM (active) with HT-29; < 0.016 µM (active) in the assay with SF-268. In addition, the GI50 with RPMI-8226 is 0.117 µM (active); with NCI-H522 it was 0.0377 µM (active).

`COc1cc2ncnc(Nc3cccc(Br)c3)c2cc1OC`: the GI50 in the assay with KM12 is 2.7 µM (inactive); with NCI-H460, 5.75 µM (inactive); in the assay on UACC-257 it was 7.5 µM (inactive); in the assay with EKVX it was 0.316 µM (active); in the assay with HOP-62, 10.4 µM (inactive); in the assay on SN12C, 13.2 µM (inactive). Further, the GI50 with SK-MEL-5 was 2.18 µM (inactive); with HL-60, > 28.8 µM (inactive); in the assay with LOX IMVI it was 3.1 µM (inactive); in the assay with HCT-116, 14.4 µM (inactive); in the assay with UO-31, 1.98 µM (inactive); with CCRF-CEM, 30.2 µM (inactive). Moreover, the GI50 in the assay on A498 was 3.12 µM (inactive); with SR it was 20.3 µM (inactive); in the assay on RXF 393, 11.5 µM (inactive); with COLO 205 it was 4.43 µM (inactive); in the assay with HT-29, 3.83 µM (inactive); in the assay with SF-268, 3.81 µM (inactive). The GI50 was 34.1 µM (inactive) with RPMI-8226 and 0.338 µM (active) with NCI-H522.
